Results published in publication PMC7956476, “Quinoline Functionalized Schiff Base Silver (I) Complexes: Interactions with Biomolecules and In Vitro Cytotoxicity, Antioxidant and Antimicrobial Activities” (Molecules, 2021).
Read-outs that look alike come from different tables or passages of the source.

Experiments:
[1] = test system: Escherichia coli ATCC 25922; experiment: Minimum inhibitory concentration (MIC), spotting on Müeller–Hinton agar; assay type: cell-based; details: Gram − Ve, E. coli, 37 °C, 18 h
Procedure: (§1) Sterilized Nutrient agar medium was first prepared by dissolving 38 g of Müeller–Hinton agar (MHA) (Biolab, Midrand, Africa) in distilled water (1 L). […] The cooled Agar medium was poured in Petri dishes while ensuring a uniform 4 mm depth of the medium and cooling further to ambient temperature.
(§2) These bacteria were inoculated in a sterilized Nutrient Broth (NB) (Biolab, Midrand, Africa) through streak plate technique and incubated at 37 °C for 18 h. The nutrient broth was sterilized by dissolving 1.3 g in distilled water (100 mL). Ca. 10 mL of the nutrient broth was transferred into a cotton wool-plugged test tubes and wrapped with an aluminium foil. […] Following this was the isolation of a single colony of the bacteria and inoculated into a 10 mL sterile NB which was then incubated in a shaking incubator at 37 °C for 18 h. Each of the bacteria strain concentrations was adjusted with sterile distilled water to get a final concentration of 1.5 × 10^8 cfu/mL, i.e., 0.5 Mc Farland’s Standard using a densitometer (Mc Farland Latvia). The bacteria were lawn inoculated on the set MHA Petri dishes using a sterile cotton swab. Screening of L1–L5 and Q1–Q15 for antibacterial activity was first carried out by spotting 5 µL of their solution (prepared from the dissolution of 1000 µg of the L1–L5 and Q1–Q15 in 1 mL dimethyl sulfoxide (DMSO)) on an MHA petri dish and incubated at 37 °C for 18 h. The antibacterial activity was determined by looking out for a clear zone at the spotting point.

[2] = test system: Pseudomonas aeruginosa ATCC 27853; experiment: as above; assay type: cell-based; details: Gram − Ve; P. aeruginosa; 37 °C, 18 h
Procedure: as §1, §2

[3] = test system: Salmonella typhimurium ATCC 14026; experiment: as above; assay type: cell-based; details: Gram − Ve; S. typhi; 37 °C, 18 h
Procedure: as §1, §2

[4] = test system: Staphylococcus aureus ATCC 25923; experiment: as above; assay type: cell-based; details: Gram + Ve, S. aureus, 37 °C, 18 h
Procedure: as §1, §2

[5] = test system: Staphylococcus aureus ATCC 700699 (methicillin-resistant); experiment: as above; assay type: cell-based; details: Gram + Ve; methicillin-resistant S. aureus; 37 °C, 18 h
Procedure: as §1, §2

[6] = Ferric reducing antioxidant power (FRAP) assay; assay type: biochemical; details: done in triplicate
From the text: Antioxidants are important in protecting the human body against damage by reactive oxygen species (ROS). Accumulation of ROS in the cells may lead to damage of the DNA, RNA, and proteins which subsequently leads to several physiological disorders such as cardiovascular disease, diabetes, rheumatism, atherosclerosis, cancer, aging and cell death. […] The free radical scavenging ability of all ligands and complexes in this study were investigated using ferric reducing antioxidant power (FRAP). In antioxidant studies, FRAP assay is often preferred because it is simple, fast, economical, and direct in antioxidant measurement. FRAP assay is based on the electron-donating ability of an antioxidant compound. This involves the reduction of a colorless Fe^3+ tripyridyltriazine complex (Fe^3+ (TPTZ)) to an intense blue-colored Fe^2+ tripyridyltriazine complex (Fe^2+ (TPTZ)) by the electron-donating antioxidants at low pH [69]. The reducing power is to determine the reductive ability of the test compounds.
Antioxidant activity studies of L1–L5 and Q1–Q15 were done using ferric reducing antioxidant power (FRAP) assay. The ferric reducing antioxidant power assay is often used to evaluate the ability of an antioxidant to donate an electron. […] The resulting mixture was incubated at 50 °C for 20 min, and 2.5 mL of 10% trichloroacetic acid was added to acidify the mixture. After that, 1 mL of the acidified mixture was added to 1 mL of distilled water and 0.5 mL of 0.1% FeCl3. The absorbance of the resulting solution was then measured at 700 nm. The antioxidant power of the compounds was expressed as a percentage of ferric reducing antioxidant power Ascorbic acid equivalent, as shown in Equation (4). (4) % FRAP =Absorbance of Absorbance of Sample/Absorbance of Ascorbic Acid ×100

calf thymus DNA (CT-DNA) = experiment: CT-DNA electronic absorption titration (Wolfe–Shimer); assay type: binding
Procedure: The interaction of the L1–L5 and complexes Q1–Q15 with calf thymus-DNA was carried out in a Phosphate buffer saline solution pH 7.2 stored at 4 °C. The DNA stock solution was prepared by dissolving CT-DNA sodium salt in Phosphate buffer saline solution with continuous stirring overnight. It was filtered and stored at 4 °C and used within four days. […] A fixed amount of the L1–L5 and complexes Q1–Q15 (50 µM) were prepared by dissolving an appropriate amount in DMSO. […] Therefore, in all the experimental of the interaction of L1–L5 and complexes Q1–Q15 with biomolecules, the final concentration of DMSO in the incubation mixture was ~2% (v/v).
The binding modes of L1–L5 and complexes Q1–Q15 to CT-DNA were characterized through electronic absorption titration by varying concentrations of CT-DNA (0–30 µM) in phosphate buffer saline solution against fixed concentrations (20 µM) of L1–L5 and complexes Q1–Q15. […] The absorbance of CT-DNA is cancelled by adding equivalent amounts of CT-DNA to both the tested compounds and the reference solutions.

CT-DNA-EB adduct = experiment: Fluorescence competitive displacement of ethidium bromide from CT-DNA; assay type: binding, calf; details: for CT-DNA-EB-Complex Ksv (M^−1) × 10^4: Stern–Volmer quenching constant, 25 °C; for CT-DNA-EB-Complex Kq (M^−1S^−1) × 10^12: bimolecular quenching constant, Ksv = Kqτo, τo 10^−8 s; for CT-DNA-EB-Complex Kbin (M^−1) × 10^5: binding constant from double-logarithmic plot
From the text: The Stern–Volmer plot approach was used based on the fact that the Stern–Volmer plots for Q1–Q15 (Figure 5c), were linear an indication of only one mechanism for the quenching fluorescence, i.e., either dynamic or static. […] (1) Ksv=Kqτo where Ksv, Kq, and τo represent Stern–Volmer quenching constant, bimolecular quenching constant, and an average lifetime of the fluorophore in the absence of the quencher, respectively. τₒ normally takes about 10^−8 s in biomacromolecules.
The double-logarithmic Equation (2) was used in determining the binding constant of complexes Q1–Q15 and CT-DNA. (2) logFo−F/F=logKb+n logQ
A competitive displacement study was carried out using fluorescence spectroscopy between CT-DNA pre-treated with ethidium bromide (EB) and complexes Q1–Q15 to establish the complexes′ actual mode of binding to CT-DNA. […] The competitive luminescence displacement assay was done using a modified method. Pre-treated 15 µM solution of EB with 15 µM of CT-DNA was prepared in a phosphate buffer of pH 7.2 and left to equilibrate for 30 min. Keeping CT-DNA-EB concentrations constant, different concentrations (0–20 µM) of the complexes were added at 8 min incubation interval at room temperature. The fluorescence quenching ability of CT-DNA bound EB by the complexes were recorded in the wavelength range of 530–700 nm with an excitation wavelength at 525 nm at 25 °C. (6) Fo/F=1+KSVQ=1+KqτoQ
A Stern–Volmer (Equation (6)) was used to evaluate the CT-DNA-EB fluorescence quenching of the complexes. Where Fo and F denote the relative fluorescence intensities of CT-DNA in the absence and presence of the quencher, Ksv, Stern–Volmer quenching constant, [Q], quencher concentration, Kq, bimolecular quenching constant and τo, average lifetime of the fluorophore in the absence of the quencher which is typically equal to 10^−8 s in biomacromolecules.

[7] = molecular target: bovine serum albumin (BSA) (Bos taurus, UniProt P02769); experiment: Albumin binding by absorption spectroscopy titration
bovine serum albumin (BSA), sequence (P02769 25-607): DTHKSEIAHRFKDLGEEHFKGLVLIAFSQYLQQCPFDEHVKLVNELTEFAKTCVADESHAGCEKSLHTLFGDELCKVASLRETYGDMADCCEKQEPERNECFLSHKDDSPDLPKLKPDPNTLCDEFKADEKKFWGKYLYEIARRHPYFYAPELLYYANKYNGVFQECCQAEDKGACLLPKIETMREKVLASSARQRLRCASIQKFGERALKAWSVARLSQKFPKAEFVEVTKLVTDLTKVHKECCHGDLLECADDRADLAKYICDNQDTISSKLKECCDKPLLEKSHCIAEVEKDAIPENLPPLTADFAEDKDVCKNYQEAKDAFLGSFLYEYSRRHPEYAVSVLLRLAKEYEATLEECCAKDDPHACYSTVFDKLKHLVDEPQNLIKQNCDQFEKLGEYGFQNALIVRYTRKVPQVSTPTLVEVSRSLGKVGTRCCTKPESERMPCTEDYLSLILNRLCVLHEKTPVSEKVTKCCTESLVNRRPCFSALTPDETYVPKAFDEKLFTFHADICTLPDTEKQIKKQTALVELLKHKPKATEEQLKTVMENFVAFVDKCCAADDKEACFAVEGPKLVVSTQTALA
From the text: Bovine serum albumin (BSA) was used as the protein standard in this study because of its close resemblance to human serum albumin (HSA), its stability, high solubility, neutrality in many biochemical reactions and low cost. In protein binding study, absorption spectroscopy titration is a known method used in studying the conformational changes in proteins, and this protein is characterized by an intense absorbance peak at 280 nm depicting the microenvironment around tyrosine and tryptophan residue polarity.
The absorbance assay of albumin binding is a very simple method used in identifying the conformational changes in protein. […] A stock solution of bovine serum albumin (BSA) was prepared by dissolving an appropriate amount of BSA in phosphate buffer saline solution (pH 7.2) under constant stirring for 1 h at 25 °C. It was kept at 4 °C and used within four days. […] The stock solution of the complex was prepared by dissolving 1 mmol of the complexes in DMSO. The absorption titration assay was done by adding different concentrations (0–10 µM) of the complexes to a constant BSA concentration (6 µM). The sample solution was incubated after each addition of the concentrations for 10 min at 25 °C before recording the absorbance at λmax 280 nm.

[8] = intrinsic binding constant, absorption titration, PBS pH 7.2

Row | SMILES | Minimum inhibitory concentration, EC [1] | Minimum inhibitory concentration, PA [2] | Minimum inhibitory concentration, ST [3] | Minimum inhibitory concentration, SA [4] | Minimum inhibitory concentration, MRSA [5] | Antioxidant (IC50 mg/mL) FRAP [6] | hypochromic shift in the absorption bands on addition of CT-DNA (calf thymus DNA (CT-DNA); absorption titration with CT-DNA) | CT-DNA-Cmp. Kb (M^−1) × 10^5 (calf thymus DNA (CT-DNA); [8]) | CT-DNA-EB-Complex Ksv (M^−1) × 10^4 (CT-DNA-EB adduct; EB displacement) | CT-DNA-EB-Complex Kq (M^−1S^−1) × 10^12 (CT-DNA-EB adduct) | CT-DNA-EB-Complex Kbin (M^−1) × 10^5 (CT-DNA-EB adduct) | Protein-Complex Kb (M^−1) × 10^4 ([7]; BSA absorption titration, 280 nm, 25 °C) | CT-DNA-Cmp. Kb (M^−1) × 10^5 (calf thymus DNA (CT-DNA); pH 7.2) | Protein-Complex Kb (M^−1) × 10^4 [7] | MIC ([1]; Escherichia coli, ATCC25922, read-out: Minimum inhibitory concentration, EC) | MIC ([4]; Staphylococcus aureus, ATCC25923, read-out: Minimum inhibitory concentration, SA) | binding constant (Kbin) to CT-DNA (CT-DNA-EB adduct; as given in the text, EB displacement, double-logarithmic plot)
1 | [Ag+].[O-][Cl+3]([O-])([O-])[O-] [AgClO4, silver perchlorate, reference compound] | 25 µg/mL | 0.8 µg/mL | 0.2 µg/mL | 3.125 µg/mL | 6.25 µg/mL | 0.88 ± 0.051 mg/mL | 23.64–50.86% | 3.30 (M^−1) × 10^5 | 3.31 (M^−1) × 10^4 | 3.31 (M^−1S^−1) × 10^12 | 6.00 (M^−1) × 10^5 | 4.82 (M^−1) × 10^4 |  |  |  |  | 
2 | O=[N+]([O-])[O-].[Ag+] [AgNO3, silver nitrate, reference compound] | 0.8 µg/mL | 12.5 µg/mL | 1000 µg/mL | 3.125 µg/mL | 0.2 µg/mL | 1.43 ± 0.03 mg/mL |  |  | 3.12 (M^−1) × 10^4 | 3.12 (M^−1S^−1) × 10^12 | 4.50 (M^−1) × 10^5 |  | 3.00 (M^−1) × 10^5 | 4.49 (M^−1) × 10^4 |  |  | 
3 | Fc1ccccc1/N=C/c1ccc2ccccc2n1 [Complex L1, (E)-N-(2-fluorophenyl)-1-(quinolin-2-yl)methanimine] |  |  |  |  |  | 22.42 ± 0.0048 mg/mL |  | 1.38 (M^−1) × 10^5 |  |  |  |  |  |  | 1000 µg/mL | 100 µg/mL | 
4 | O=[N+]([O-])[O-].[Ag+].c1ccc2nc(-c3nc4ccccc4s3)ccc2c1.c1ccc2nc(-c3nc4ccccc4s3)ccc2c1 [Complex Q2, [Ag(L2)2]NO3] | 25 µg/mL | 12.5 µg/mL | 50 µg/mL | 25 µg/mL | 50 µg/mL | 1.10 ± 0.0044 mg/mL |  | 3.00 (M^−1) × 10^5 | 2.68 (M^−1) × 10^4 | 2.68 (M^−1S^−1) × 10^12 | 5.03 (M^−1) × 10^5 |  |  | 7.97 (M^−1) × 10^4 |  |  | 
5 | Clc1ccc(N=Cc2ccc3ccccc3n2)cc1.Clc1ccc(N=Cc2ccc3ccccc3n2)cc1.O=[N+]([O-])[O-].[Ag+] [Complex Q3, [Ag(L3)2]NO3] | 25 µg/mL | 12.5 µg/mL | 50 µg/mL | 50 µg/mL | 50 µg/mL | 4.75 ± 0.0042 mg/mL |  | 15.7 (M^−1) × 10^5 | 3.93 (M^−1) × 10^4 | 3.93 (M^−1S^−1) × 10^12 | 9.17 (M^−1) × 10^5 |  |  | 5.11 (M^−1) × 10^4 |  |  | 
6 | C(=NCc1cccs1)c1ccc2ccccc2n1.C(=NCc1cccs1)c1ccc2ccccc2n1.[Ag+].[O-][Cl+3]([O-])([O-])[O-] [Complex Q10, [Ag(L5)2]ClO4] | 6.25 µg/mL | 1.6 µg/mL | 100 µg/mL | 25 µg/mL | 1000 µg/mL | 0.98 ± 0.055 mg/mL |  | 5.00 (M^−1) × 10^5 | 2.98 (M^−1) × 10^4 | 2.98 (M^−1S^−1) × 10^12 | 9.61 (M^−1) × 10^5 |  |  | 8.01 (M^−1) × 10^4 |  |  | 961000 M⁻¹
